Columns and labels:
[1] = system: gold-labelled mouse monoclonal anti-THC antibody; test: Lateral flow immunochromatography test for cannabis, immobilised BSA-THC conjugate, spiked oral fluid, Cozart Rapiscan reader; details: lowest concentration in spiked drug-free oral fluid giving a positive signal on the reader
[2] = system: gold-labelled mouse monoclonal anti-THC antibody; test: Lateral flow immunochromatography test for cannabis, immobilised BSA-CAN (5-pentylresorcinol/BSA) conjugate, spiked oral fluid, Cozart Rapiscan reader; details: for Concentration giving positive Cozart Rapiscan Response: immobilised conjugate BSA-CAN, lowest concentration in spiked drug-free oral fluid giving a positive signal on the reader; for Detectable level by competitive immunoassay: 5-pentylresorcinol conjugate with commercial anti-THC antibody
[3] = system: mouse monoclonal anti-THC antibody; test: Interference of free 5-pentylresorcinol with antibody binding to immobilised 5-pentylresorcinol-macromolecule conjugates; details: 5-pentylresorcinol in free solution
[4] = system: antibodies raised to THC-COOH coupled to a carrier protein via the phenolic group at C1; details: relative to THC-COOH; commercially available assay; cited from earlier work

| SMILES | Concentration giving positive Cozart Rapiscan Response [1] | Sensitivity of detection compared with the parent drug THC ([2]; 5-pentylresorcinol conjugate and anti-THC antibody combination) | Concentration giving positive Cozart Rapiscan Response [2] | Interference with binding of anti-THC antibody to immobilised conjugate [3] | Cross-reactivity [4] | Detectable level by competitive immunoassay [2] | Increase of sensitivity of detection with BSA-CAN versus BSA-THC ([2]; lateral flow strips, BSA-CAN compared with BSA-THC) |
| --- | --- | --- | --- | --- | --- | --- | --- |
| CCCCCc1cc(O)c2c(c1)OC(C)(C)[C@@H]1CCC(CO)=C[C@@H]21 [THC—OH, 11-hydroxy-delta-9-THC] | 200 ng/mL | comparable sensitivity to the parent drug | 20 ng/mL |  |  |  |  |
| CCCCCc1cc(O)cc(O)c1 [5-pentylresorcinol] |  |  |  | does not interfere |  |  |  |
| CCCCCc1cc(O)c2c(c1)OC(C)(C)[C@@H]1CCC(C)=C[C@@H]21 [THC, Delta-9-tetrahydrocannabinol] | 200 ng/mL |  | 20 ng/mL |  | 5% | ≤ 20 ng/mL | about 10 fold |
| CCCCCc1cc(O)c2c(c1)OC(C)(C)[C@@H]1CCC(C(=O)O)=C[C@@H]21 [THC—COOH, 11-nor-9-carboxy-delta-9-THC] | 10 ng/mL |  | 1.0 ng/mL |  |  | about 1.0 ng/ml |  |

From US7790400B2, “Delta-9-tetrahydrocannabinol detection method” (Concateno UK Limited, priority 2004, dated 2010)
